≈ marks a conversion by molar mass, not a printed value. Read-outs that look alike come from different tables or passages of the source.
Key:
Format in all cases: cell-based
[1] = system: Klebsiella pneumoniae; assay: MIC with/without PMBN, Klebsiella pneumoniae
Outline: (§1)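 Rhodanines and control antibiotics are tested for MIC against Gram-negative bacteria while a sub-inhibitory level of colistin or PMBN is present. A strain of E. coli lacking the AcrAB efflux pump (SM1411ΔacrAB) serves as an additional test organism.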

[2] = system: K. pneumoniae; assay: Broth microdilution MIC, K. pneumoniae
[3] = system: Escherichia coli O157:H7; assay: MIC with/without sub-MIC colistin, Escherichia coli O157:H7
Outline: as §1

[4] = system: vancomycin resistant enterococci (VRE) E. faecium; assay: Broth microdilution MIC/MBC, VRE E. faecium; details: for MIC: read-out: MIC
[5] = system: Candida albicans; assay: MIC against Candida albicans; details: table prints none, read-out: MIC
[6] = system: methicillin-resistant Staphylococcus aureus (MRSA); assay: Broth microdilution MIC/MBC, MRSA
[7] = system: Acinetobacter baumannii; assay: MIC with/without PMBN, Acinetobacter baumannii
Outline: as §1

[8] = system: vancomycin resistant enterococci (VRE) E. faecalis; assay: Broth microdilution MIC/MBC, VRE E. faecalis; details: for MIC: read-out: MIC
[9] = system: Vancomycin Resistant Staphylococcus aureus (VRSA); assay: Broth microdilution MIC/MBC, VRSA; details: for MBC / MIC: VRSA
[10] = system: Bacillus anthracis; assay: microbe, parasite or virus in culture
[11] = E. faecium HM 968 Strain ERV102
[12] = E. faecium NR31914 Strain E0120
[13] = E. faecium Patient #1–1 NR-31903
[14] = E. faecalis NR31972 Strain SF 28073

O=C(O)[C@@H](Cc1ccccc1)N1C(=O)/C(=C/c2cccc(Cc3ccccc3)c2)SC1=S [Rh 7]
MIC ([1]; Klebsiella pneumoniae ATCC BAA 1706, PMBN (+) 4 μg/mL): >64 µM | MIC ([1]; Klebsiella pneumoniae ATCC BAA 2146, PMBN (+) 4 μg/mL): >64 µM | MIC ([1]; Klebsiella pneumoniae, BAA1706): > 128 µM | MIC ([1]; Klebsiella pneumoniae, BAA2146): > 128 µM | MIC ([2]; K. pneumoniae NR-15417): >128 µM | MIC ([2]; Klebsiella pneumoniae): > 128 µM | MIC ([3]; Escherichia coli O157:H7 ATCC 35150, colistin (+) […], read-out: MIC): >64 µM | MIC ([3]; Escherichia coli O157:H7 ATCC 700728, colistin (+) […], read-out: MIC): >64 µM | MIC ([3]; Escherichia coli, ATCC35150): > 128 µM | MIC ([3]; Escherichia coli, ATCC700728): > 128 µM | MBC ([4]; E. faecium E417 HM-965): 64 µM (≈ 29.4 µg/mL) | MIC ([4]; E. faecium E417 HM-965): 8 µM (≈ 3.68 µg/mL) | MBC ([4]; E. faecium E1071 NR-28978): > 64 µM | MIC ([4]; E. faecium E1071 NR-28978): 16 µM (≈ 7.35 µg/mL) | MBC [4, 11]: > 64 µM | MIC [4, 11]: 16 µM (≈ 7.35 µg/mL) | MBC [4, 12]: 32 µM (≈ 14.7 µg/mL) | MIC [4, 12]: 16 µM (≈ 7.35 µg/mL) | MBC [4, 13]: 16 µM (≈ 7.35 µg/mL) | MIC [4, 13]: 8 µM (≈ 3.68 µg/mL) | MIC ([5]; ATCC10231, C. albicans ATCC 10231, unit from abstract): > 64 µM | MIC ([5]; C. albicans NR 29434, unit from abstract): > 64 µM | MIC ([5]; C. albicans NR 29435, unit from abstract): > 64 µM | MIC ([5]; C. albicans NR29437, unit from abstract): > 64 µM | MIC ([5]; C. albicans NR29438, unit from abstract): > 64 µM | MIC ([5]; C. albicans NR 29446, unit from abstract): 64 µM (≈ 29.4 µg/mL) | MIC ([5]; C. albicans NR 29448, unit from abstract): > 64 µM | MIC ([5]; C. albicans NR 29449, unit from abstract): > 64 µM | MIC ([5]; C. albicans NR 29453, unit from abstract): > 64 µM | MIC ([5]; C. albicans NR 294436, unit from abstract): > 64 µM | MIC50 ([6]; 11 MRSA strains): 8 µM (≈ 3.68 µg/mL) | MIC90 ([6]; 11 MRSA strains): 16 µM (≈ 7.35 µg/mL) | MBC ([6]; MRSA NRS 1): 16 µM (≈ 7.35 µg/mL) | MIC ([6]; MRSA NRS 1): 8 µM (≈ 3.68 µg/mL) | MBC ([6]; MRSA NRS 19): 8 µM (≈ 3.68 µg/mL) | MIC ([6]; MRSA NRS 19): 8 µM (≈ 3.68 µg/mL) | MBC ([6]; MRSA NRS 37): 16 µM (≈ 7.35 µg/mL) | MIC ([6]; MRSA NRS 37): 16 µM (≈ 7.35 µg/mL) | MBC ([6]; MRSA NRS 107): 16 µM (≈ 7.35 µg/mL) | MIC ([6]; MRSA NRS 107): 16 µM (≈ 7.35 µg/mL) | MBC ([6]; MRSA NRS 119): 8 µM (≈ 3.68 µg/mL) | MIC ([6]; MRSA NRS 119): 8 µM (≈ 3.68 µg/mL) | MBC ([6]; MRSA NRS 383): 16 µM (≈ 7.35 µg/mL) | MIC ([6]; MRSA NRS 383): 16 µM (≈ 7.35 µg/mL) | MBC ([6]; MRSA NRS 384): 64 µM (≈ 29.4 µg/mL) | MIC ([6]; MRSA NRS 384): 8 µM (≈ 3.68 µg/mL) | MBC ([6]; MRSA NRS 385): 16 µM (≈ 7.35 µg/mL) | MIC ([6]; MRSA NRS 385): 8 µM (≈ 3.68 µg/mL) | MBC ([6]; MRSA NRS 386): > 64 µM | MIC ([6]; MRSA NRS 386): 8 µM (≈ 3.68 µg/mL) | MBC ([6]; MRSA NRS 387): 8 µM (≈ 3.68 µg/mL) | MIC ([6]; MRSA NRS 387): 8 µM (≈ 3.68 µg/mL) | MIC ([7]; Acinetobacter baumannii ATCC BAA747, PMBN (+) 4 μg/mL, read-out: MIC): >64 µM | MIC ([7]; Acinetobacter baumannii ATCC BAA19606, PMBN (+) 4 μg/mL, read-out: MIC): >64 µM | MIC ([7]; Acinetobacter baumannii, ATCCBAA747): > 128 µM | MIC ([7]; Acinetobacter baumannii, ATCCBAA19606): > 128 µM | MBC ([8]; E. faecalis ERV103 HM-934): 16 µM (≈ 7.35 µg/mL) | MIC ([8]; E. faecalis ERV103 HM-934): 16 µM (≈ 7.35 µg/mL) | MBC [8, 14]: 16 µM (≈ 7.35 µg/mL) | MIC [8, 14]: 16 µM (≈ 7.35 µg/mL) | MBC ([8]; E. faecalis R712 HM-335): 16 µM (≈ 7.35 µg/mL) | MIC ([8]; E. faecalis R712 HM-335): 8 µM (≈ 3.68 µg/mL) | MBC ([8]; E. faecalis S613 HM-334): 16 µM (≈ 7.35 µg/mL) | MIC ([8]; E. faecalis S613 HM-334): 16 µM (≈ 7.35 µg/mL) | MBC ([8]; E. faecalis TX0104 HM-201): 16 µM (≈ 7.35 µg/mL) | MIC ([8]; E. faecalis TX0104 HM-201): 16 µM (≈ 7.35 µg/mL) | MIC50 ([9]; 15 VRSA strains, read-out: MIC 50): 8 µM (≈ 3.68 µg/mL) | MIC90 ([9]; 15 VRSA strains, read-out: MIC 90): 16 µM (≈ 7.35 µg/mL) | MBC ([9]; VRSA 1, read-out: MBC): 32 µM (≈ 14.7 µg/mL) | MIC ([9]; VRSA 1, read-out: MIC): 16 µM (≈ 7.35 µg/mL) | MBC ([9]; VRSA 2, read-out: MBC): 8 µM (≈ 3.68 µg/mL) | MIC ([9]; VRSA 2, read-out: MIC): 8 µM (≈ 3.68 µg/mL) | MBC ([9]; VRSA 3a, read-out: MBC): 8 µM (≈ 3.68 µg/mL) | MIC ([9]; VRSA 3a, read-out: MIC): 8 µM (≈ 3.68 µg/mL) | MBC ([9]; VRSA 3b, read-out: MBC): 32 µM (≈ 14.7 µg/mL) | MIC ([9]; VRSA 3b, read-out: MIC): 8 µM (≈ 3.68 µg/mL) | MBC ([9]; VRSA 4, read-out: MBC): 16 µM (≈ 7.35 µg/mL) | MIC ([9]; VRSA 4, read-out: MIC): 8 µM (≈ 3.68 µg/mL) | MBC ([9]; VRSA 5, read-out: MBC): 8 µM (≈ 3.68 µg/mL) | MIC ([9]; VRSA 5, read-out: MIC): 8 µM (≈ 3.68 µg/mL) | MBC ([9]; VRSA 6, read-out: MBC): 16 µM (≈ 7.35 µg/mL) | MIC ([9]; VRSA 6, read-out: MIC): 8 µM (≈ 3.68 µg/mL) | MBC ([9]; VRSA 7, read-out: MBC): 16 µM (≈ 7.35 µg/mL) | MIC ([9]; VRSA 7, read-out: MIC): 8 µM (≈ 3.68 µg/mL) | MBC ([9]; VRSA 8, read-out: MBC): 16 µM (≈ 7.35 µg/mL) | MIC ([9]; VRSA 8, read-out: MIC): 8 µM (≈ 3.68 µg/mL) | MBC ([9]; VRSA 9, read-out: MBC): 16 µM (≈ 7.35 µg/mL) | MIC ([9]; VRSA 9, read-out: MIC): 16 µM (≈ 7.35 µg/mL) | MBC ([9]; VRSA 10, read-out: MBC): 16 µM (≈ 7.35 µg/mL) | MIC ([9]; VRSA 10, read-out: MIC): 8 µM (≈ 3.68 µg/mL) | MBC ([9]; VRSA 11a, read-out: MBC): 16 µM (≈ 7.35 µg/mL) | MIC ([9]; VRSA 11a, read-out: MIC): 8 µM (≈ 3.68 µg/mL) | MBC ([9]; VRSA 11b, read-out: MBC): 32 µM (≈ 14.7 µg/mL) | MIC ([9]; VRSA 11b, read-out: MIC): 8 µM (≈ 3.68 µg/mL) | MBC ([9]; VRSA 12, read-out: MBC): 16 µM (≈ 7.35 µg/mL) | MIC ([9]; VRSA 12, read-out: MIC): 8 µM (≈ 3.68 µg/mL) | MBC ([9]; VRSA 13, read-out: MBC): 32 µM (≈ 14.7 µg/mL) | MIC ([9]; VRSA 13, read-out: MIC): 8 µM (≈ 3.68 µg/mL) | MBC ([10]; Bacillus anthracis AMES35): 2 µM (≈ 0.919 µg/mL) | MIC ([10]; Bacillus anthracis AMES35): 2 µM (≈ 0.919 µg/mL) | MBC ([10]; Bacillus anthracis UM23): 2 µM (≈ 0.919 µg/mL) | MIC ([10]; Bacillus anthracis UM23): 2 µM (≈ 0.919 µg/mL) | MBC ([10]; Bacillus anthracis Weybridge): 2 µM (≈ 0.919 µg/mL) | MIC ([10]; Bacillus anthracis Weybridge): 2 µM (≈ 0.919 µg/mL)
